Experimental data published in patent publication US6852482B1, “Methods and compositions for inhibiting β-secretase” (Elan Pharmaceuticals, Inc., priority 1995, dated 2005).
Where two headings read alike, the source gives them in different places. Blank lines part the entries; values can stand above or below the molecule they belong to.

What was measured:
[1] = molecular target: T1, β-secretase cleavage of APP in membranes from 293 cells transfected with the Swedish variant of APP (Homo sapiens, UniProt P56817); test: cell membrane (in situ) β-secretase cleavage of APP, 293SW cell membranes, 192SW immunoblot; assay type: biochemical
T1 construct: membranes from 293 cells transfected with the Swedish variant of APP (293SWE cells); endogenous in cells; host or cells: 293SW cells (human 293 cells stably transfected with Swedish APP); saponin-extracted P2 membrane pellet
Description: Generation of β-secretase cleaved APP fragments from the endogenous full length APP protein was observed using the 192SW antibody (described above) in membranes from 293 cells transfected with the Swedish variant of APP (293SWE cells). APP fragments may be measured by immunoprecipitation or by immunoblotting. The latter technique is preferred for reasons of convenience.
A semiquantitative assay for the detecting in situ β-secretase cleavage of APP in membranes was developed used to directly identify β-secretase inhibitors. The membrane assay is useful as a primary screen or as a secondary assay to confirm inhibiting activity of potential inhibitors identified in the assays described above.
Cell membrane assays were run as follows. […]
For β-secretase inhibition assays, 10 μl of the test compound of interest at 5 times its desired final concentration, in 500 mM sodium acetate, pH 5.5, and 20% DMSO, was added to 40 μl of the extracted P2 suspension. […] Membranes were blocked in NCS-TBS (10% newborn calf serum, 150 mM sodium chloride, 50 mM Tris, pH 7.5), and analyzed using 192SW, 0.5 μg/ml in NCS-TBS, as primary antibody, horseradish peroxidase-linked anti-rabbit IgG (Amersham) diluted 1:3000 in NCS-TBS as secondary antibody, and ECL reagent (Amersham) as chemilumenescent developer. The 192SW-reactive bands identified by autoradiography were quantitated by densitometry.

β-secretase [2] = molecular target: T2, β-secretase (Homo sapiens, UniProt P56817); test: β-secretase inhibitor assay: purified β-secretase, MBP-C125 SW substrate, ELISA
β-secretase [3] = molecular target: T2, β-secretase; test: binding of substantially purified β-secretase activity to immobilized lectins; parameters: endogenous in cells; host or cells: human 293 cells or human brain; solubilized membrane extract purified by WGA, SP, Q, Con A and Superdex 200 chromatography; settings: for β-Secretase Binding: immobilized lectins
Procedure: Glycosylation of β-secretase has been investigated using various immobilized lectins, and ability of substantially purified β-secretase activity to bind to them was determined. […] A “−” sign signifies less than 20% binding, “+” between 24-40% binding, “++” between 50-75% binding, and “+++”>75% binding.

[4] = concentration of inhibitor giving 50% inhibition of control activity

T2 sequence (P56817 46-501): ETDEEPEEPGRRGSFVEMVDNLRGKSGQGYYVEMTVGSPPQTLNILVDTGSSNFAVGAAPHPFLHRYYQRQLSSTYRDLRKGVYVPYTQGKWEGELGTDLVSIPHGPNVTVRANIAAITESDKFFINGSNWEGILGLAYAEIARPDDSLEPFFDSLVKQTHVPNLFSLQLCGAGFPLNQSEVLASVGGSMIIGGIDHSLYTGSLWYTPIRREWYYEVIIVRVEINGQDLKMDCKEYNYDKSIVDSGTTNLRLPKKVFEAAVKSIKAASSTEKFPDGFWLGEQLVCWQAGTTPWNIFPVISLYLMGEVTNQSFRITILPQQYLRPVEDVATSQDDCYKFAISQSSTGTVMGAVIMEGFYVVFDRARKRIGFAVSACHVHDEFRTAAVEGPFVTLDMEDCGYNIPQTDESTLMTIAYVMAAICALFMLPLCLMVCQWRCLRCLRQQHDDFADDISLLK

Molecule: Nc1c(/N=N/c2ccc(-c3ccc(/N=N/c4cc(S(=O)(=O)O)c5ccccc5c4N)cc3)cc2)cc(S(=O)(=O)O)c2ccccc12 [Congo Red]
activity in the in situ assay [1]: much more potent than an inactive control compound
activity in the ELISA assay (β-secretase [2]; ELISA assay): much more potent than an inactive control compound

Molecule: [Zn+2] [Zn]
IC50 (β-secretase [2]; [4]): 3 mM

Molecule: CCCCC(NC(=O)C=[N+]=[N-])C(=O)OC (stereo not shown) [diazoacetylnorleucyl-methyl ester]
IC50 (β-secretase [2]): > 5 mM

Molecule: c1cnc2c(c1)ccc1cccnc12 [o-phenanthroline]
IC50 (β-secretase [2]; [4]): 7 mM
inhibition of β-secretase activity (β-secretase [2]; summary of Table 3): inhibits poorly

Molecule: m-phenanthroline
IC50 (β-secretase [2]; [4]): 7 mM

Molecule: wheat germ (WGA): immobilized lectin
binding of β-secretase activity (β-secretase [3]): quantitatively
β-Secretase Binding (β-secretase [3]): + + +

The remaining lines, values ahead:

IC50 (β-secretase [2]; [4]): 2 mM
Molecule: [Cu+2] [Cu]

β-Secretase Binding (β-secretase [3]): + (between 24-40% binding)
Molecule: wheat germ - succinylated (SWGA): immobilized lectin

β-Secretase Binding (β-secretase [3]): + (between 24-40% binding)
B1: lentil (LCA): immobilized lectin (protein)
chain 1: TETTSFSITKFSPDQKNLIFQGDGYTTKGKLTLTKAVKSTVGRALYSTPIHIWDRDTGNVANFVTSFTFVIDAPSSYNVADEFTFFIAPVDTKPQTGGGYLGVFNSKEYDKTSQTVAVEFDTFYNAAWDPSNKERHIGIDVNSIKSVNTKSWNLQNGERANVVIAFNAATNVLTVTLTYP
chain 2: VTSYTLNEVVPLKDVVPEWVRIGFSATTGAEFAAHEVHSWSFHSELGGTSSS

β-Secretase Binding (β-secretase [3]): + (between 24-40% binding)
B2: peanut (PNA): immobilized lectin (protein, UniProt P02872 24-273, looked up)
Galactose-binding lectin: AETVSFNFNSFSEGNPAINFQGDVTVLSNGNIQLTNLNKVNSVGRVLYAMPVRIWSSATGNVASFLTSFSFEMKDIKDYDPADGIIFFIAPEDTQIPAGSIGGGTLGVSDTKGAGHFVGVEFDTYSNSEYNDPPTDHVGIDVNSVDSVKTVPWNSVSGAVVKVTVIYDSSTKTLSVAVTNDNGDITTIAQVVDLKAKLPERVKFGFSASGSLGGRQIHLIRSWSFTSTLITTTRRSIDNNEKKIMNMASA
modifications: immobilized
notes: immobilized lectin
